# What was measured:
# Assay type in all cases: biochemical
# Itk = biological target: T1, Itk (Homo sapiens, UniProt Q08881); experiment: ITK Inhibition Assay (Radiometric), radioactive-phosphate incorporation; details: enzyme inhibition data (Ki), Table 11; radiometric or UV assay not stated
# T1 sequence (Q08881 1-620): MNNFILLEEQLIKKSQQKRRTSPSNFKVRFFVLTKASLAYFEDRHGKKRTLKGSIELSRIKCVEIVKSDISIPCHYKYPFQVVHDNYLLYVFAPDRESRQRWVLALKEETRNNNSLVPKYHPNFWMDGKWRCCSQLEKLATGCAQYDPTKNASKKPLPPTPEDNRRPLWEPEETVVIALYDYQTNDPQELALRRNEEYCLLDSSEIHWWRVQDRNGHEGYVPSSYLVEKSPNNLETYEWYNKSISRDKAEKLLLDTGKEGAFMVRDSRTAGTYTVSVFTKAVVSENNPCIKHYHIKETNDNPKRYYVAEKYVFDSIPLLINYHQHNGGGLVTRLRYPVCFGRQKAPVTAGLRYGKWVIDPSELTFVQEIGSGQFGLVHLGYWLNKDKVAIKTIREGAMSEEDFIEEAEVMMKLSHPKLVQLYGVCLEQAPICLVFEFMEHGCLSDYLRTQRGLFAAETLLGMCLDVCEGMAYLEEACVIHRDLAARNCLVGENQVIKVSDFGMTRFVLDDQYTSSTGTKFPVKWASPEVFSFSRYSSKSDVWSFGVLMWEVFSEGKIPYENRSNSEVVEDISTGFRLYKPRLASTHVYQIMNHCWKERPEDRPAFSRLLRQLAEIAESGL
# Method in brief: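 Radiometric 33P incorporation into SAM68 peptide (D332-443) with filter capture and scintillation counting; 10 min pre-incubation then 10 min reaction at 25° C. IC50 format: 30 nM Itk, 15 μM ATP, 2 μM peptide, HEPES pH 7.5. Ki(app) format: 50 nM Itk, 7.5 μM ATP, 3 μM peptide, MOPS pH 7.0.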
# JAK3 = biological target: T2, JAK3 (Homo sapiens, UniProt P52333); experiment: JAK3 Inhibition Assay, 33P incorporation; details: enzyme inhibition data (Ki), Table 11
# T2 sequence (P52333 1-1124): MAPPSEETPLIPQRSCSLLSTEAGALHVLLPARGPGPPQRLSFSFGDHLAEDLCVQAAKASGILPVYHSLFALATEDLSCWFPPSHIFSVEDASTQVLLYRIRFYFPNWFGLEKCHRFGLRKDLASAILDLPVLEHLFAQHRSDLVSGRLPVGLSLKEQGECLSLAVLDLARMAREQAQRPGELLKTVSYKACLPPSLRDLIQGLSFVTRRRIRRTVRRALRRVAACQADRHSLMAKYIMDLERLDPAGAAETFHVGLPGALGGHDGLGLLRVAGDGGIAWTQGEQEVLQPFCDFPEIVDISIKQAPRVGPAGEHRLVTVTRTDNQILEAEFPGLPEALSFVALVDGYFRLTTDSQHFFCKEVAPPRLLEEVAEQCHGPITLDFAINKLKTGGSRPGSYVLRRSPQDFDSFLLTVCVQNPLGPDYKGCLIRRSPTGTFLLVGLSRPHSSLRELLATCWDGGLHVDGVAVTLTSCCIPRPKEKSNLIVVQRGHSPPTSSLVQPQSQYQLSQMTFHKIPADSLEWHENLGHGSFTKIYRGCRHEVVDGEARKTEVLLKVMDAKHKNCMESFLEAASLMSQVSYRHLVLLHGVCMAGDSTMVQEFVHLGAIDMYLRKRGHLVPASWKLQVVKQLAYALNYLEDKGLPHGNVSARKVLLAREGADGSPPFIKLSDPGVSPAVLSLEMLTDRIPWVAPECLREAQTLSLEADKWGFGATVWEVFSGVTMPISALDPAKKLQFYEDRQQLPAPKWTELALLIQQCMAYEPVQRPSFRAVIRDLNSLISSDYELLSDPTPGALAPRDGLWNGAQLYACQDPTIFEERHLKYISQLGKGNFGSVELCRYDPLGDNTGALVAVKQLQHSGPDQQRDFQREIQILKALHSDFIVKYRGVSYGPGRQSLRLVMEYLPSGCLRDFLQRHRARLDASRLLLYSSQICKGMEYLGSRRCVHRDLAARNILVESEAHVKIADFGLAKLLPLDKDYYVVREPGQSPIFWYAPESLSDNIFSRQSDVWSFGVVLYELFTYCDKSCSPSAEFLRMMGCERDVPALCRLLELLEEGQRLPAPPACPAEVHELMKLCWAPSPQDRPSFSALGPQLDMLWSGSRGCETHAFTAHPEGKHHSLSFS
# Method in brief: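 33P incorporation into 1 μM poly(Glu)4Tyr was counted after TCA stop and glass fiber filtration. The 20 min reaction ran at 25 °C with 1 nM JAK3 and 5 μM ATP (200 uCi/μmole). Buffer was 100 mM HEPES pH 7.4, 10 mM MgCl2, 25 mM NaCl, 1 mM DTT, 0.01% BSA.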
# c-Met = c-Met (Homo sapiens, UniProt P08581); experiment: c-Met Inhibition Assay, coupled enzyme system; details: enzyme inhibition data (Ki), Table 11
# Sequence of c-Met (P08581 25-1390): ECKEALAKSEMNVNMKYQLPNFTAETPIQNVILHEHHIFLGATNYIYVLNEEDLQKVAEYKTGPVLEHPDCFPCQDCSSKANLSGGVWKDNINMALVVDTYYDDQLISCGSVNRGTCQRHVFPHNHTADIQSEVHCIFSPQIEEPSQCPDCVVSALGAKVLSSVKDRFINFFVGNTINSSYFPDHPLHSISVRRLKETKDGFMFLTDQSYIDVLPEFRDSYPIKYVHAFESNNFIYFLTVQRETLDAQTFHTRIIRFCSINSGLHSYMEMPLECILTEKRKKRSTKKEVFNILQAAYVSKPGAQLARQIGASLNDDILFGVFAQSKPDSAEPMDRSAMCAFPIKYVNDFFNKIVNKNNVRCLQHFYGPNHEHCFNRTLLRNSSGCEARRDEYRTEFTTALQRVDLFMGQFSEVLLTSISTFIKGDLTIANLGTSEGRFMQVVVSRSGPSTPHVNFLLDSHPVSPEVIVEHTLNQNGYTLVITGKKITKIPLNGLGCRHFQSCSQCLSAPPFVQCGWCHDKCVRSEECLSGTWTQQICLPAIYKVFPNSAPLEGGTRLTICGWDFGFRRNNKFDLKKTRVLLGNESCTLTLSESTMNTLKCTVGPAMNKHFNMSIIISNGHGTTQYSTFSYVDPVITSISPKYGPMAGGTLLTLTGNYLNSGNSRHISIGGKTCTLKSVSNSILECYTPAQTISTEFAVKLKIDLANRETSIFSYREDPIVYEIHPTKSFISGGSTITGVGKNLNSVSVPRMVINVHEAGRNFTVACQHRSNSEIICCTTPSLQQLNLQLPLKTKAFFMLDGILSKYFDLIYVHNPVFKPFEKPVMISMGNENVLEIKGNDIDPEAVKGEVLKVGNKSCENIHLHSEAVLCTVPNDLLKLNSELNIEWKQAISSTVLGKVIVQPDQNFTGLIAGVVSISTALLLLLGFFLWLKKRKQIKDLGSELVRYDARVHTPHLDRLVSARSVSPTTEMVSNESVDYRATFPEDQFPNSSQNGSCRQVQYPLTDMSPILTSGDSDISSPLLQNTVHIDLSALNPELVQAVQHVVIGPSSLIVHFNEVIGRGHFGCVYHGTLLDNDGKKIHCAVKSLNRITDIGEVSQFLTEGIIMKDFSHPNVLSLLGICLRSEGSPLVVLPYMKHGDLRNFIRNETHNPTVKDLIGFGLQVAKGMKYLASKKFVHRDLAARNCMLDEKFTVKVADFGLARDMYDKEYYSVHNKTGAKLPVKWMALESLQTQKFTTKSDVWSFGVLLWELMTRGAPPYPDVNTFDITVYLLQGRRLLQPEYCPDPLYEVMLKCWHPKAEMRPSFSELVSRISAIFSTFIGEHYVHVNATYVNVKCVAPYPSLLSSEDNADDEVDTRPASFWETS
# Method in brief: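 Pyruvate kinase/lactate dehydrogenase-coupled NADH assay in HEPES pH 7.5 with 80 nM c-Met, 200 μM ATP and 10 μM polyGluTyr at 30° C. Compound (0.006–12.5 μM final, 12-point) preincubated 10 min before ATP start; rates over 10 min gave Ki.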
SMILES,Ki (Itk),Ki (JAK3),Ki (c-Met)
Nc1nn2cc(C(=O)NCc3cccnc3)cnc2c1-c1ccccn1 [Compound V-200],0.5 to 5 µM,> 5 µM,0.5 to 5 µM
CC(C)(C)OC(=O)N1CCC(CNC(=O)c2cnc3c(-c4ccccn4)c(N)nn3c2)CC1 [Compound V-201],0.5 to 5 µM,> 5 µM,0.5 to 5 µM
CC(C)CNC(=O)c1cnc2c(-c3ccccn3)c(N)nn2c1 [Compound V-205],0.5 to 5 µM,> 5 µM,0.5 to 5 µM
Nc1nn2cc(C(=O)NCc3ccccc3)cnc2c1-c1ccccn1 [Compound V-207],0.5 to 5 µM,> 5 µM,0.5 to 5 µM
Nc1nn2cc(/C=C/c3ccccc3)cnc2c1-c1ccccn1 [Compound V-209],< 0.5 µM,> 5 µM,0.5 to 5 µM
CN(C)CCN(C)C(=O)c1ccc(-c2cnc3c(Cc4ccccc4)c(N)nn3c2)nc1 [Compound V-211],0.5 to 5 µM,> 5 µM,0.5 to 5 µM
Nc1nn2cc(CCc3ccccc3)cnc2c1-c1ccccn1 [Compound V-213],0.5 to 5 µM,> 5 µM,0.5 to 5 µM
Nc1nn2cc(NC(=O)c3ccccc3)cnc2c1-c1ccccn1 [Compound V-235],0.5 to 5 µM,> 5 µM,0.5 to 5 µM
COc1ccc(-c2cnc3c([N+](=O)[O-])c(N)nn3c2)cc1 [Compound V-239],0.5 to 5 µM,> 5 µM,0.5 to 5 µM
COc1ccc(-c2cnc3c(N)c(N)nn3c2)cc1 [Compound V-240],0.5 to 5 µM,> 5 µM,0.5 to 5 µM
Nc1nn2cc(-c3ccnc(NCCCC4=NCC=N4)c3)cnc2c1-c1ccccn1 [Compound V-250],< 0.5 µM,0.5 to 5 µM,< 0.5 µM
CN(Cc1cccnc1)c1cc(-c2cnc3c(-c4ccccn4)c(N)nn3c2)ccn1 [Compound V-252],0.5 to 5 µM,> 5 µM,0.5 to 5 µM
Nc1nn2cc(-c3cccnc3N3CCOCC3)cnc2c1-c1ccccn1 [Compound V-257],0.5 to 5 µM,> 5 µM,0.5 to 5 µM
Nc1nn2cc(-c3cccnc3N3CCCCC3)cnc2c1-c1ccccn1 [Compound V-259],0.5 to 5 µM,> 5 µM,0.5 to 5 µM
Nc1nn2cc(-c3cccnc3N3CC[C@H](CN4CCCC4)C3)cnc2c1-c1ccccn1 [Compound V-261],0.5 to 5 µM,> 5 µM,0.5 to 5 µM
Nc1nn2cc(-c3cccnc3N3CCC[C@H]3CO)cnc2c1-c1ccccn1 [Compound V-262],0.5 to 5 µM,> 5 µM,0.5 to 5 µM
CCN(Cc1ccccn1)c1ncccc1-c1cnc2c(-c3ccccn3)c(N)nn2c1 [Compound V-263],0.5 to 5 µM,> 5 µM,0.5 to 5 µM
Nc1nn2cc(-c3cccnc3N3CCN(Cc4ccncc4)CC3)cnc2c1-c1ccccn1 [Compound V-264],0.5 to 5 µM,> 5 µM,0.5 to 5 µM
Nc1nn2cc(-c3cccnc3N3CCC(N4CCCC4)CC3)cnc2c1-c1ccccn1 [Compound V-265],0.5 to 5 µM,> 5 µM,0.5 to 5 µM
Nc1nn2cc(-c3cccnc3N3CCN(CCO)CC3)cnc2c1-c1ccccn1 [Compound V-266],0.5 to 5 µM,> 5 µM,0.5 to 5 µM
CN1CCCN(c2ncccc2-c2cnc3c(-c4ccccn4)c(N)nn3c2)CC1 [Compound V-267],0.5 to 5 µM,> 5 µM,0.5 to 5 µM
CN1CCN(c2ncccc2-c2cnc3c(-c4ccccn4)c(N)nn3c2)CC1 [Compound V-268],0.5 to 5 µM,> 5 µM,0.5 to 5 µM
CC(=O)N1CCN(c2ncccc2-c2cnc3c(-c4ccccn4)c(N)nn3c2)CC1 [Compound V-269],0.5 to 5 µM,> 5 µM,0.5 to 5 µM
Nc1nn2cc(-c3cccnc3N3CCCC(CO)C3)cnc2c1-c1ccccn1 (stereo not drawn) [Compound V-270],0.5 to 5 µM,> 5 µM,0.5 to 5 µM
Nc1nn2cc(N3CCC[C@@H]3CN3CCCC3)cnc2c1-c1ccccn1 [Compound V-272],0.5 to 5 µM,> 5 µM,0.5 to 5 µM
Cc1cnc2c(-c3cc(NCc4cc(Cl)ccc4Cl)ncn3)c(N)nn2c1 [Compound V-275],0.5 to 5 µM,> 5 µM,0.5 to 5 µM
CCC(C)Nc1cc(-c2c(N)nn3cc(C)cnc23)ncn1 (stereo not drawn) [Compound V-282],0.5 to 5 µM,0.5 to 5 µM,< 0.5 µM

# The next lines start with the values.
Ki (Itk),Ki (JAK3),Ki (c-Met),SMILES
0.5 to 5 µM,> 5 µM,< 0.5 µM,COCCNc1cc(-c2cnc3c(-c4ccccn4)c(N)nn3c2)ccn1 [Compound V-245]
0.5 to 5 µM,> 5 µM,< 0.5 µM,CN(C)CCNc1cc(-c2cnc3c(-c4ccccn4)c(N)nn3c2)ccn1 [Compound V-246]
0.5 to 5 µM,> 5 µM,< 0.5 µM,Nc1nn2cc(-c3ccnc(N4CCN(Cc5ccccc5)CC4)c3)cnc2c1-c1ccccn1 [Compound V-247]
0.5 to 5 µM,0.5 to 5 µM,< 0.5 µM,Nc1nn2cc(-c3ccnc(N4CCN(CCO)CC4)c3)cnc2c1-c1ccccn1 [Compound V-248]
0.5 to 5 µM,0.5 to 5 µM,< 0.5 µM,Nc1nn2cc(-c3ccnc(N4CCN(CCOCCO)CC4)c3)cnc2c1-c1ccccn1 [Compound V-249]
0.5 to 5 µM,> 5 µM,< 0.5 µM,Nc1nn2cc(-c3ccnc(N4CCC[C@@H]4CO)c3)cnc2c1-c1ccccn1 [Compound V-251]
0.5 to 5 µM,> 5 µM,0.5 to 5 µM,CCOC(=O)C1CCN(c2cc(-c3cnc4c(-c5ccccn5)c(N)nn4c3)ccn2)CC1 [Compound V-253]
0.5 to 5 µM,> 5 µM,0.5 to 5 µM,CN1CCCN(c2cc(-c3cnc4c(-c5ccccn5)c(N)nn4c3)ccn2)CC1 [Compound V-254]
0.5 to 5 µM,> 5 µM,0.5 to 5 µM,Nc1nn2cc(-c3ccnc(N4CCN(c5cnccn5)CC4)c3)cnc2c1-c1ccccn1 [Compound V-255]
0.5 to 5 µM,> 5 µM,0.5 to 5 µM,Nc1nn2cc(-c3ccnc(N4CCC(N5CCCC5)CC4)c3)cnc2c1-c1ccccn1 [Compound V-256]
0.5 to 5 µM,> 5 µM,0.5 to 5 µM,Nc1nn2cc(-c3cccnc3N3CCCC3)cnc2c1-c1ccccn1 [Compound V-258]
0.5 to 5 µM,> 5 µM,0.5 to 5 µM,COC(=O)C1CCN(c2ncccc2-c2cnc3c(-c4ccccn4)c(N)nn3c2)CC1 [Compound V-260]
0.5 to 5 µM,> 5 µM,0.5 to 5 µM,Nc1nn2cc(-c3cccnc3N3CCC(CCO)CC3)cnc2c1-c1ccccn1 [Compound V-271]
